Reference: the NIST ThermoML archive (doi:10.1021/je060485s)

How the values were obtained:
[1] = xn = mol fraction of the nth substance listed; settings: for surface tension liquid-gas: Pendant drop shape; for mass density: 101 kPa, Liquid
[2] = for surface tension liquid-gas: Pendant drop shape; for mass density: 101 kPa, Liquid

Cc1cccc(C)c1 [1,3-dimethylbenzene] + CCCOC(C)=O
[1]
Settings	mass density [kg/m3]	surface tension liquid-gas [mN/m]
298.15 K, x2 = 0	859.8	28.47
298.15 K, x2 = 0.0997	861.98	27.86
298.15 K, x2 = 0.1999	864.17	27.26
298.15 K, x2 = 0.2986	866.33	26.7
298.15 K, x2 = 0.4002	868.57	26.16
298.15 K, x2 = 0.4986	870.76	25.71
298.15 K, x2 = 0.6004	873.06	25.3
298.15 K, x2 = 0.6984	875.31	24.94
298.15 K, x2 = 0.8004	877.7	24.59
298.15 K, x2 = 0.9007	880.11	24.25
303.15 K, x2 = 0	855.51	27.93
303.15 K, x2 = 0.0999	857.57	27.35
303.15 K, x2 = 0.1989	859.62	26.79
303.15 K, x2 = 0.299	861.69	26.25
303.15 K, x2 = 0.4003	863.8	25.73
303.15 K, x2 = 0.5	865.9	25.27
303.15 K, x2 = 0.5994	868.02	24.88
303.15 K, x2 = 0.6998	870.19	24.51
303.15 K, x2 = 0.8006	872.42	24.15
303.15 K, x2 = 0.8992	874.66	23.81
308.15 K, x2 = 0	851.19	27.37
308.15 K, x2 = 0.0998	853.12	26.8
308.15 K, x2 = 0.2	855.07	26.25
308.15 K, x2 = 0.2998	857.01	25.71
308.15 K, x2 = 0.3993	858.96	25.19
308.15 K, x2 = 0.5006	860.96	24.7
308.15 K, x2 = 0.6004	862.95	24.27
308.15 K, x2 = 0.6999	864.97	23.89
308.15 K, x2 = 0.7988	867.02	23.52
308.15 K, x2 = 0.9013	869.2	23.15

Cc1ccc(C)cc1 [1,4-dimethylbenzene]
[2]
Settings	mass density [kg/m3]	surface tension liquid-gas [mN/m]
298.15 K	856.92	28.08
303.15 K	852.58	27.47
308.15 K	848.26	27.13

CCCOC(C)=O [propyl ethanoate] + Cc1ccc(C)cc1
[1]
Settings	mass density [kg/m3]	surface tension liquid-gas [mN/m]
298.15 K, x1 = 0.1	859.6	27.56
298.15 K, x1 = 0.1995	862.22	27.04
298.15 K, x1 = 0.2981	864.8	26.54
298.15 K, x1 = 0.3986	867.38	26.05
298.15 K, x1 = 0.4993	869.95	25.61
298.15 K, x1 = 0.6002	872.51	25.23
298.15 K, x1 = 0.6991	875	24.89
298.15 K, x1 = 0.7993	877.52	24.56
298.15 K, x1 = 0.8999	880.05	24.23
298.15 K, x1 = 1	882.54	23.91
303.15 K, x1 = 0.0994	855.13	26.98
303.15 K, x1 = 0.1992	857.64	26.48
303.15 K, x1 = 0.2992	860.13	25.99
303.15 K, x1 = 0.3991	862.58	25.52
303.15 K, x1 = 0.5009	865.05	25.1
303.15 K, x1 = 0.5998	867.44	24.76
303.15 K, x1 = 0.6999	869.84	24.43
303.15 K, x1 = 0.8009	872.26	24.1
303.15 K, x1 = 0.8997	874.63	23.78
303.15 K, x1 = 1	876.99	23.46
308.15 K, x1 = 0.1001	850.7	26.61
308.15 K, x1 = 0.1999	853.09	26.09
308.15 K, x1 = 0.2992	855.43	25.57
308.15 K, x1 = 0.4001	857.77	25.06
308.15 K, x1 = 0.4996	860.06	24.62
308.15 K, x1 = 0.6	862.35	24.23
308.15 K, x1 = 0.6996	864.61	23.87
308.15 K, x1 = 0.8003	866.88	23.51
308.15 K, x1 = 0.9002	869.14	23.15
308.15 K, x1 = 1	871.35	22.79

Cc1ccccc1C [1,2-dimethylbenzene] + CCCOC(C)=O
[1], x2 = 0
Settings	mass density [kg/m3]	surface tension liquid-gas [mN/m]
298.15 K	875.05	29.89
303.15 K	870.83	29.24
308.15 K	866.62	28.57

CCCOC(C)=O [propyl ethanoate]
[2]
Settings	mass density [kg/m3]	surface tension liquid-gas [mN/m]
298.15 K	882.54	23.91
303.15 K	876.99	23.46
308.15 K	871.35	22.79

Cc1cccc(C)c1 [1,3-dimethylbenzene]
[2]
Settings	mass density [kg/m3]	surface tension liquid-gas [mN/m]
298.15 K	859.8	28.47
303.15 K	855.51	27.93
308.15 K	851.19	27.37

Cc1ccc(C)cc1 [1,4-dimethylbenzene] + CCCOC(C)=O
[1], x2 = 0
Settings	mass density [kg/m3]	surface tension liquid-gas [mN/m]
298.15 K	856.92	28.08
303.15 K	852.58	27.47
308.15 K	848.26	27.13

CCc1ccccc1 [ethylbenzene] + CCCOC(C)=O
[1], x2 = 0
Settings	mass density [kg/m3]	surface tension liquid-gas [mN/m]
298.15 K	862.25	28.79
303.15 K	857.88	28.29
308.15 K	853.43	27.85

CCCOC(C)=O [propyl ethanoate] + CCc1ccccc1
[1]
Settings	mass density [kg/m3]	surface tension liquid-gas [mN/m]
298.15 K, x1 = 0.1005	864.23	28.15
298.15 K, x1 = 0.1994	866.18	27.51
298.15 K, x1 = 0.3002	868.16	26.89
298.15 K, x1 = 0.4005	870.14	26.35
298.15 K, x1 = 0.5	872.12	25.91
298.15 K, x1 = 0.6002	874.14	25.5
298.15 K, x1 = 0.6997	876.17	25.1
298.15 K, x1 = 0.7998	878.24	24.7
298.15 K, x1 = 0.9007	880.38	24.3
298.15 K, x1 = 1	882.54	23.91
303.15 K, x1 = 0.1001	859.75	27.7
303.15 K, x1 = 0.1995	861.59	27.1
303.15 K, x1 = 0.2995	863.45	26.49
303.15 K, x1 = 0.4	865.32	25.95
303.15 K, x1 = 0.5004	867.2	25.49
303.15 K, x1 = 0.5995	869.08	25.07
303.15 K, x1 = 0.6999	871	24.65
303.15 K, x1 = 0.8005	872.96	24.24
303.15 K, x1 = 0.9007	874.96	23.85
303.15 K, x1 = 1	876.99	23.46
308.15 K, x1 = 0.1	855.19	27.24
308.15 K, x1 = 0.2	856.93	26.62
308.15 K, x1 = 0.2999	858.67	26.01
308.15 K, x1 = 0.3997	860.41	25.46
308.15 K, x1 = 0.5003	862.18	24.97
308.15 K, x1 = 0.5999	863.95	24.52
308.15 K, x1 = 0.7001	865.74	24.08
308.15 K, x1 = 0.8007	867.58	23.65
308.15 K, x1 = 0.9003	869.44	23.22
308.15 K, x1 = 1	871.35	22.79

CCCOC(C)=O [propyl ethanoate] + Cc1ccccc1C
[1]
Settings	mass density [kg/m3]	surface tension liquid-gas [mN/m]
298.15 K, x1 = 0.0998	876.04	28.94
298.15 K, x1 = 0.1995	876.96	28.14
298.15 K, x1 = 0.2996	877.83	27.47
298.15 K, x1 = 0.4002	878.67	26.85
298.15 K, x1 = 0.5001	879.45	26.27
298.15 K, x1 = 0.6004	880.18	25.71
298.15 K, x1 = 0.7002	880.85	25.18
298.15 K, x1 = 0.7999	881.46	24.69
298.15 K, x1 = 0.9	882.03	24.25
298.15 K, x1 = 1	882.54	23.91
303.15 K, x1 = 0.0999	–	28.41
303.15 K, x1 = 0.1	871.68	–
303.15 K, x1 = 0.1997	872.48	27.6
303.15 K, x1 = 0.2992	873.22	26.92
303.15 K, x1 = 0.3998	873.93	26.3
303.15 K, x1 = 0.4993	874.57	25.74
303.15 K, x1 = 0.6002	875.17	25.2
303.15 K, x1 = 0.6994	875.7	24.7
303.15 K, x1 = 0.8002	876.19	24.24
303.15 K, x1 = 0.902	876.63	23.81
303.15 K, x1 = 1	876.99	23.46
308.15 K, x1 = 0.0999	867.33	27.8
308.15 K, x1 = 0.1999	867.99	27.05
308.15 K, x1 = 0.3001	868.59	26.35
308.15 K, x1 = 0.3989	869.15	25.73
308.15 K, x1 = 0.5002	869.66	25.14
308.15 K, x1 = 0.6008	870.11	24.6
308.15 K, x1 = 0.6998	870.5	24.1
308.15 K, x1 = 0.8007	870.84	23.63
308.15 K, x1 = 0.9	871.12	23.2
308.15 K, x1 = 1	871.35	22.79

Cc1ccccc1C [1,2-dimethylbenzene]
[2]
Settings	mass density [kg/m3]	surface tension liquid-gas [mN/m]
298.15 K	875.05	29.89
303.15 K	870.83	29.24
308.15 K	866.62	28.57

CCc1ccccc1 [ethylbenzene]
[2]
Settings	mass density [kg/m3]	surface tension liquid-gas [mN/m]
298.15 K	862.25	28.79
303.15 K	857.88	28.29
308.15 K	853.43	27.85

CCCOC(C)=O [propyl ethanoate] + Cc1cccc(C)c1
[1], x1 = 1
Settings	mass density [kg/m3]	surface tension liquid-gas [mN/m]
298.15 K	882.54	23.91
303.15 K	876.99	23.46
308.15 K	871.35	22.79
